Test results from the NIST ThermoML archive (doi:10.1021/acs.jced.6b00523).
Several values for one entry are separate records, joined by “and”; a condition that tells them apart may be missing. Identical values can stand only once. ± gives the expanded uncertainty stated by the source.

How the values were obtained:
[1] = Closed cell (Static) method
[2] = Solid-liquid equilibrium temperature; conditions: 100 kPa, DTA
[3] = Boiling temperature at pressure P; conditions: 100 kPa; Glass; DTA
[4] = Molar enthalpy of transition or fusion; conditions: DSC

CCCCCCCCCC [decane]
[1], Liquid
Conditions	vapor or sublimation pressure
276.76 K	0.03526 ± 0.00088 kPa
276.77 K	0.03527 ± 0.00088 kPa and 0.03532 ± 0.00088 kPa
279.78 K	0.0452 ± 0.001 kPa
279.79 K	0.04525 ± 0.001 kPa
282.92 K	0.0583 ± 0.0013 kPa and 0.05835 ± 0.0013 kPa
282.93 K	0.05835 ± 0.0013 kPa
285.13 K	0.06951 ± 0.0015 kPa
285.16 K	0.06967 ± 0.0015 kPa
285.18 K	0.06981 ± 0.0015 kPa
288.76 K	0.0915 ± 0.0019 kPa and 0.09155 ± 0.0019 kPa
288.77 K	0.09159 ± 0.0019 kPa
292.21 K	0.1188 ± 0.0023 kPa
292.22 K	0.1188 ± 0.0023 kPa
294.67 K	0.1405 ± 0.0024 kPa
301.29 K	0.2229 ± 0.0034 kPa
301.38 K	0.2242 ± 0.0034 kPa and 0.2243 ± 0.0034 kPa
303.84 K	0.2659 ± 0.0039 kPa
303.85 K	0.266 ± 0.0039 kPa and 0.2661 ± 0.0039 kPa
307.33 K	0.3327 ± 0.0047 kPa and 0.3328 ± 0.0047 kPa
315.2 K	0.5466 ± 0.0073 kPa
315.21 K	0.5467 ± 0.0073 kPa
319.09 K	0.6901 ± 0.0091 kPa
319.11 K	0.6907 ± 0.0091 kPa and 0.6909 ± 0.0091 kPa
320.85 K	0.7646 ± 0.01 kPa and 0.7649 ± 0.01 kPa and 0.765 ± 0.01 kPa
324.98 K	0.9683 ± 0.012 kPa
324.99 K	0.9687 ± 0.013 kPa
325 K	0.9687 ± 0.013 kPa
326.41 K	1.049 ± 0.013 kPa
330.79 K	1.33 ± 0.016 kPa and 1.331 ± 0.016 kPa
330.8 K	1.332 ± 0.016 kPa
331.92 K	1.414 ± 0.017 kPa
331.93 K	1.415 ± 0.017 kPa

O=C(c1ccccc1)c1ccccc1 [benzophenone]
[1]
Conditions	vapor or sublimation pressure
293.08 K, Crystal	4.2e-05 kPa
293.09 K, Crystal	4.6e-05 kPa
293.1 K, Crystal	4.1e-05 kPa
293.11 K, Metastable liquid	8.1e-05 kPa and 8.4e-05 kPa and 8.5e-05 kPa
296.29 K, Crystal	6.8e-05 ± 0.00011 kPa and 6.9e-05 ± 0.00011 kPa
296.3 K, Crystal	6.7e-05 ± 0.00011 kPa
298.44 K, Crystal	9.2e-05 ± 0.00011 kPa and 9.3e-05 ± 0.00011 kPa
298.45 K, Crystal	9e-05 ± 0.00011 kPa
298.48 K, Metastable liquid	0.000153 kPa and 0.000157 kPa and 0.000158 kPa
300.55 K, Crystal	0.000124 ± 0.00011 kPa
300.56 K, Crystal	0.000118 ± 0.00011 kPa and 0.000119 ± 0.00011 kPa
302.13 K, Metastable liquid	0.000217 kPa and 0.000221 kPa
302.14 K, Metastable liquid	0.000217 kPa
303.2 K, Crystal	0.000168 ± 0.00011 kPa
303.22 K, Crystal	0.000166 ± 0.00011 kPa
303.25 K, Crystal	0.000165 ± 0.00011 kPa
306.93 K, Crystal	0.000263 ± 0.00012 kPa and 0.000265 ± 0.00012 kPa and 0.000267 ± 0.00012 kPa
307.46 K, Metastable liquid	0.000382 ± 0.00012 kPa
307.48 K, Metastable liquid	0.000376 ± 0.00012 kPa and 0.00038 ± 0.00012 kPa
309.05 K, Crystal	0.000338 ± 0.00012 kPa and 0.00034 ± 0.00012 kPa and 0.000345 ± 0.00012 kPa
311.1 K, Crystal	0.000431 ± 0.00012 kPa and 0.000434 ± 0.00012 kPa and 0.000435 ± 0.00012 kPa
312.77 K, Metastable liquid	0.000631 ± 0.00012 kPa
312.78 K, Metastable liquid	0.000635 ± 0.00012 kPa and 0.000637 ± 0.00012 kPa
314.3 K, Crystal	0.000629 ± 0.00012 kPa and 0.000632 ± 0.00012 kPa and 0.000635 ± 0.00012 kPa
317.33 K, Crystal	0.000891 ± 0.00013 kPa
317.34 K, Crystal	0.000892 ± 0.00013 kPa and 0.000899 ± 0.00013 kPa
318.05 K, Metastable liquid	0.001035 ± 0.00013 kPa and 0.001036 ± 0.00013 kPa and 0.001039 ± 0.00013 kPa
319.4 K, Crystal	0.00113 ± 0.00013 kPa
319.41 K, Crystal	0.001128 ± 0.00013 kPa and 0.001131 ± 0.00013 kPa
320.42 K, Crystal	0.001256 ± 0.00013 kPa and 0.001265 ± 0.00013 kPa and 0.001267 ± 0.00013 kPa
320.95 K, Crystal	0.001353 ± 0.00014 kPa and 0.001356 ± 0.00014 kPa and 0.001362 ± 0.00014 kPa
323.33 K, Metastable liquid	0.001658 ± 0.00014 kPa and 0.00166 ± 0.00014 kPa and 0.001661 ± 0.00014 kPa
333.79 K, Liquid	0.003974 ± 0.0002 kPa and 0.003975 ± 0.0002 kPa and 0.003979 ± 0.0002 kPa
338.9 K, Liquid	0.005953 ± 0.00027 kPa and 0.005954 ± 0.00027 kPa and 0.005968 ± 0.00027 kPa
344.09 K, Liquid	0.008882 ± 0.00037 kPa and 0.00889 ± 0.00037 kPa and 0.008894 ± 0.00037 kPa
349.19 K, Liquid	0.0129 ± 0.00052 kPa and 0.01291 ± 0.00052 kPa and 0.01293 ± 0.00052 kPa
354.35 K, Liquid	0.01864 ± 0.0006 kPa and 0.01865 ± 0.0006 kPa and 0.01866 ± 0.0006 kPa
359.4 K, Liquid	0.02628 ± 0.00073 kPa and 0.02629 ± 0.00073 kPa and 0.02631 ± 0.00073 kPa
364.47 K, Liquid	0.03673 ± 0.00091 kPa
364.48 K, Liquid	0.03672 ± 0.00091 kPa

Conditions	Molar enthalpy of transition or fusion, [4] [kcal/mol]	Solid-liquid equilibrium temperature, [2] [K]
Crystal	4.45 ± 0.12	321.3 ± 0.3
Metastable crystal	3.47 ± 0.0956	298.3 ± 0.3

Conditions	Boiling temperature at pressure P [°C]
[3]	-61 ± 1
